Like-named read-outs stand apart in the source and are kept apart here.
What was measured:
[1] = Biodistribution in EMT-6 BALB/C mice; format: in vivo; conditions: Balb/c, mouse, intravenous
Protocol: (§1) As used herein, the term “tumor:background ratio” (i.e., tumor:fat ratio, tumor:muscle ratio, tumor:lung ratio, tumor:blood ratio) refers to the % injected dose/g tissue of the radiotracer in the tumor divided by the % injected dose/g […] in the background tissue (i.e., fat, muscle, lung, blood).
(§2) B. Biodistribution Studies of ^11C analogs in Tumor-Bearing Mice. Biodistribution studies were conducted in mature Balb/c mice that were implanted with EMT-6 mammary tumors identified herein as EMT-6 BALB/C mice to create laboratory tumor-bearing mice. The mice were implanted in the scapular region seven days prior to the study. Animals were injected with 100-150 μCi of the ^11C-labeled radiotracer and the animals were sacrificed at 5, 30, and 60 min post-i.v. injection of the radiotracer.
(§3) A series of biodistribution studies in tumor-bearing mice were also conducted with [^76Br]8, [^76Br]6, [^125I]8i, and [^125I]6i.

EMT-6 mammary tumors = experiment: Biodistribution in EMT-6 BALB/C mice; format: in vivo
Protocol: as §1, §2, §3

[2] = molecular target: T1, σ2 receptors in the breast tumors (Mus musculus, UniProt Q8VD00); experiment: In vivo blocking studies with YUN 143 in tumor-bearing mice; conditions: blocking agent YUN 143 (1 mg/kg, i.v.); time point of highest % I.D./gram tumor
T1 construct: mature Balb/c mice that were implanted with EMT-6 mammary tumors; from tissue; host or cells: EMT-6 mammary tumours in Balb/c mice, in vivo
T1 sequence (Q8VD00 1-176): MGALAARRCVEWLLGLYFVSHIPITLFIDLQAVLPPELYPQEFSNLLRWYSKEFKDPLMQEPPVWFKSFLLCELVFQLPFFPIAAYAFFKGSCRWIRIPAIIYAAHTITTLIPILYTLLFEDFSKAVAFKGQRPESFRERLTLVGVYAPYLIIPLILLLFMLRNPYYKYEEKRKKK
Description: The blocking agent was YUN 143, which has a high affinity for σ1 and σ2 receptors. Animals were sacrificed at the time point displaying the highest % I.D./gram tumor.
The inventors then conducted blocking studies in order to confirm that the radiotracer labeled σ2 receptors in the breast tumors. […] We have previously reported that [^18F]YUN 143 labels σ1 and σ2 receptors in breast tumor xenografts (Mach et al., 2001).

[3] = kidney, read-out: % ID per gram kidney
[4] = liver, read-out: % ID per gram liver

COc1cc2c(cc1OC)CN(CCCCNC(=O)c1cc([125I])cc(OC)c1OC)CC2 [[^125I]6i]
tissue uptake at 2 h [1, 3]: 2.45 ± 0.25 %ID/g | tissue uptake at 4 h [1, 3]: 0.63 ± 0.11 %ID/g | tissue uptake at 2 h [1, 4]: 1.91 ± 0.2 %ID/g | tissue uptake at 4 h [1, 4]: 0.9 ± 0.21 %ID/g | tissue uptake at 4 h ([1]; lung, read-out: % ID per gram lung): 0.29 ± 0.05 %ID/g | ratio Tumor:blood (EMT-6 mammary tumors; 5 min): 1.73 ± 0.46 | ratio Tumor:fat (EMT-6 mammary tumors; 5 min): 1.00 ± 0.20 | ratio Tumor:heart (EMT-6 mammary tumors; 5 min): 0.61 ± 0.07 | ratio Tumor:lung (EMT-6 mammary tumors; 5 min): 0.15 ± 0.02 | ratio Tumor:muscle (EMT-6 mammary tumors; 5 min): 0.98 ± 0.13 | ratio Tumor:blood (EMT-6 mammary tumors; 30 min): 2.07 ± 0.32 | ratio Tumor:fat (EMT-6 mammary tumors; 30 min): 2.62 ± 0.27 | ratio Tumor:heart (EMT-6 mammary tumors; 30 min): 2.32 ± 0.18 | ratio Tumor:lung (EMT-6 mammary tumors; 30 min): 0.82 ± 0.09 | ratio Tumor:muscle (EMT-6 mammary tumors; 30 min): 3.94 ± 0.55 | ratio Tumor:blood (EMT-6 mammary tumors; 1 hour): 2.44 ± 0.53 | ratio Tumor:fat (EMT-6 mammary tumors; 1 hour): 4.85 ± 0.67 | ratio Tumor:heart (EMT-6 mammary tumors; 1 hour): 3.89 ± 0.08 | ratio Tumor:lung (EMT-6 mammary tumors; 1 hour): 1.66 ± 0.17 | ratio Tumor:muscle (EMT-6 mammary tumors; 1 hour): 4.26 ± 0.74 | ratio Tumor:blood (EMT-6 mammary tumors; 2 hour): 2.83 ± 1.62 | ratio Tumor:fat (EMT-6 mammary tumors; 2 hour): 5.86 ± 2.93 | ratio Tumor:heart (EMT-6 mammary tumors; 2 hour): 4.85 ± 2.31 | ratio Tumor:lung (EMT-6 mammary tumors; 2 hour): 1.99 ± 1.04 | ratio Tumor:muscle (EMT-6 mammary tumors; 2 hour): 6.99 ± 4.44 | ratio Tumor:blood (EMT-6 mammary tumors; 4 hour): 3.11 ± 0.85 | ratio Tumor:fat (EMT-6 mammary tumors; 4 hour): 9.59 ± 4.55 | ratio Tumor:heart (EMT-6 mammary tumors; 4 hour): 5.91 ± 1.65 | ratio Tumor:lung (EMT-6 mammary tumors; 4 hour): 2.83 ± 0.19 | ratio Tumor:muscle (EMT-6 mammary tumors; 4 hour): 8.98 ± 3.01 | % ID per gram blood (EMT-6 mammary tumors; 5 min): 2.37 ± 0.26 % ID per gram | % ID per gram blood (EMT-6 mammary tumors; 30 min): 2.19 ± 0.16 % ID per gram | % ID per gram blood (EMT-6 mammary tumors; 1 hour): 1.52 ± 0.49 % ID per gram | % ID per gram blood (EMT-6 mammary tumors; 2 hour): 0.65 ± 0.07 % ID per gram | % ID per gram blood (EMT-6 mammary tumors; 4 hour): 0.29 ± 0.11 % ID per gram | % ID per gram brain (EMT-6 mammary tumors; 5 min): 1.53 ± 0.14 % ID per gram | % ID per gram brain (EMT-6 mammary tumors; 30 min): 0.39 ± 0.03 % ID per gram | % ID per gram brain (EMT-6 mammary tumors; 1 hour): 0.15 ± 0.03 % ID per gram | % ID per gram brain (EMT-6 mammary tumors; 2 hour): 0.06 ± 0.01 % ID per gram | % ID per gram brain (EMT-6 mammary tumors; 4 hour): 0.02 ± 0.01 % ID per gram | % ID per gram fat (EMT-6 mammary tumors; 5 min): 4.15 ± 0.91 % ID per gram | % ID per gram fat (EMT-6 mammary tumors; 30 min): 1.73 ± 0.20 % ID per gram | % ID per gram fat (EMT-6 mammary tumors; 1 hour): 0.74 ± 0.17 % ID per gram | % ID per gram fat (EMT-6 mammary tumors; 2 hour): 0.33 ± 0.08 % ID per gram | % ID per gram fat (EMT-6 mammary tumors; 4 hour): 0.10 ± 0.05 % ID per gram | % ID per gram heart (EMT-6 mammary tumors; 5 min): 6.55 ± 0.54 % ID per gram | % ID per gram heart (EMT-6 mammary tumors; 30 min): 1.94 ± 0.09 % ID per gram | % ID per gram heart (EMT-6 mammary tumors; 1 hour): 0.91 ± 0.10 % ID per gram | % ID per gram heart (EMT-6 mammary tumors; 2 hour): 0.40 ± 0.05 % ID per gram | % ID per gram heart (EMT-6 mammary tumors; 4 hour): 0.15 ± 0.04 % ID per gram | % ID per gram kidney (EMT-6 mammary tumors; 5 min): 29.51 ± 2.23 % ID per gram | % ID per gram kidney (EMT-6 mammary tumors; 30 min): 13.69 ± 0.35 % ID per gram | % ID per gram kidney (EMT-6 mammary tumors; 1 hour): 5.94 ± 1.22 % ID per gram | % ID per gram liver (EMT-6 mammary tumors; 5 min): 13.20 ± 2.04 % ID per gram | % ID per gram liver (EMT-6 mammary tumors; 30 min): 8.77 ± 0.88 % ID per gram | % ID per gram liver (EMT-6 mammary tumors; 1 hour): 4.24 ± 0.60 % ID per gram | % ID per gram lung (EMT-6 mammary tumors; 5 min): 27.13 ± 1.61 % ID per gram | % ID per gram lung (EMT-6 mammary tumors; 30 min): 5.50 ± 0.62 % ID per gram | % ID per gram lung (EMT-6 mammary tumors; 1 hour): 2.12 ± 0.19 % ID per gram | % ID per gram lung (EMT-6 mammary tumors; 2 hour): 1.01 ± 0.18 % ID per gram | % ID per gram muscle (EMT-6 mammary tumors; 5 min): 4.10 ± 0.33 % ID per gram | % ID per gram muscle (EMT-6 mammary tumors; 30 min): 1.21 ± 0.17 % ID per gram | % ID per gram muscle (EMT-6 mammary tumors; 1 hour): 0.87 ± 0.22 % ID per gram | % ID per gram muscle (EMT-6 mammary tumors; 2 hour): 0.31 ± 0.10 % ID per gram | % ID per gram muscle (EMT-6 mammary tumors; 4 hour): 0.10 ± 0.04 % ID per gram | % ID per gram tumor (EMT-6 mammary tumors; 5 min): 4.02 ± 0.55 % ID per gram | % ID per gram tumor (EMT-6 mammary tumors; 30 min): 4.50 ± 0.43 % ID per gram | % ID per gram tumor (EMT-6 mammary tumors; 1 hour): 3.53 ± 0.42 % ID per gram | % ID per gram tumor (EMT-6 mammary tumors; 2 hour): 1.88 ± 0.76 % ID per gram | % ID per gram tumor (EMT-6 mammary tumors; 4 hour): 0.82 ± 0.09 % ID per gram | in vivo blocking study result [2]: consistent with the labeling of σ2 receptors in vivo

COc1cc2c(cc1OC)CN(CCNC(=O)c1cc([125I])ccc1OC)CC2 [[^125I]8i]
ratio Tumor:blood (EMT-6 mammary tumors; 5 min): 0.42 ± 0.03 | ratio Tumor:fat (EMT-6 mammary tumors; 5 min): 0.84 ± 0.06 | ratio Tumor:heart (EMT-6 mammary tumors; 5 min): 1.04 ± 0.08 | ratio Tumor:lung (EMT-6 mammary tumors; 5 min): 0.50 ± 0.07 | ratio Tumor:muscle (EMT-6 mammary tumors; 5 min): 2.00 ± 0.37 | ratio Tumor:blood (EMT-6 mammary tumors; 30 min): 0.57 ± 0.12 | ratio Tumor:fat (EMT-6 mammary tumors; 30 min): 1.49 ± 0.65 | ratio Tumor:heart (EMT-6 mammary tumors; 30 min): 1.44 ± 0.18 | ratio Tumor:lung (EMT-6 mammary tumors; 30 min): 0.98 ± 0.16 | ratio Tumor:muscle (EMT-6 mammary tumors; 30 min): 2.06 ± 0.69 | ratio Tumor:blood (EMT-6 mammary tumors; 1 hour): 0.62 ± 0.09 | ratio Tumor:fat (EMT-6 mammary tumors; 1 hour): 1.93 ± 1.87 | ratio Tumor:heart (EMT-6 mammary tumors; 1 hour): 1.81 ± 0.32 | ratio Tumor:lung (EMT-6 mammary tumors; 1 hour): 0.91 ± 0.24 | ratio Tumor:muscle (EMT-6 mammary tumors; 1 hour): 2.14 ± 0.99 | ratio Tumor:blood (EMT-6 mammary tumors; 2 hour): 0.26 ± 0.08 | ratio Tumor:fat (EMT-6 mammary tumors; 2 hour): 2.44 ± 0.77 | ratio Tumor:heart (EMT-6 mammary tumors; 2 hour): 1.00 ± 0.27 | ratio Tumor:lung (EMT-6 mammary tumors; 2 hour): 0.67 ± 0.14 | ratio Tumor:muscle (EMT-6 mammary tumors; 2 hour): 2.17 ± 0.23 | % ID per gram blood (EMT-6 mammary tumors; 5 min): 6.90 ± 1.29 % ID per gram | % ID per gram blood (EMT-6 mammary tumors; 30 min): 2.44 ± 0.65 % ID per gram | % ID per gram blood (EMT-6 mammary tumors; 1 hour): 1.17 ± 0.29 % ID per gram | % ID per gram blood (EMT-6 mammary tumors; 2 hour): 3.37 ± 1.23 % ID per gram | % ID per gram brain (EMT-6 mammary tumors; 5 min): 1.42 ± 0.33 % ID per gram | % ID per gram brain (EMT-6 mammary tumors; 30 min): 0.20 ± 0.06 % ID per gram | % ID per gram brain (EMT-6 mammary tumors; 1 hour): 0.06 ± 0.02 % ID per gram | % ID per gram brain (EMT-6 mammary tumors; 2 hour): 0.09 ± 0.03 % ID per gram | % ID per gram fat (EMT-6 mammary tumors; 5 min): 3.46 ± 0.59 % ID per gram | % ID per gram fat (EMT-6 mammary tumors; 30 min): 1.03 ± 0.44 % ID per gram | % ID per gram fat (EMT-6 mammary tumors; 1 hour): 0.77 ± 0.66 % ID per gram | % ID per gram fat (EMT-6 mammary tumors; 2 hour): 0.37 ± 0.13 % ID per gram | % ID per gram heart (EMT-6 mammary tumors; 5 min): 2.79 ± 0.35 % ID per gram | % ID per gram heart (EMT-6 mammary tumors; 30 min): 0.94 ± 0.19 % ID per gram | % ID per gram heart (EMT-6 mammary tumors; 1 hour): 0.40 ± 0.02 % ID per gram | % ID per gram heart (EMT-6 mammary tumors; 2 hour): 0.86 ± 0.26 % ID per gram | % ID per gram kidney (EMT-6 mammary tumors; 5 min): 54.77 ± 8.42 % ID per gram | % ID per gram kidney (EMT-6 mammary tumors; 30 min): 38.59 ± 2.05 % ID per gram | % ID per gram kidney (EMT-6 mammary tumors; 1 hour): 18.07 ± 2.07 % ID per gram | % ID per gram kidney (EMT-6 mammary tumors; 2 hour): 8.46 ± 1.26 % ID per gram | % ID per gram liver (EMT-6 mammary tumors; 5 min): 41.37 ± 7.23 % ID per gram | % ID per gram liver (EMT-6 mammary tumors; 30 min): 8.20 ± 1.05 % ID per gram | % ID per gram liver (EMT-6 mammary tumors; 1 hour): 2.87 ± 0.34 % ID per gram | % ID per gram liver (EMT-6 mammary tumors; 2 hour): 3.47 ± 1.05 % ID per gram | % ID per gram lung (EMT-6 mammary tumors; 5 min): 5.95 ± 1.30 % ID per gram | % ID per gram lung (EMT-6 mammary tumors; 30 min): 1.39 ± 0.29 % ID per gram | % ID per gram lung (EMT-6 mammary tumors; 1 hour): 0.81 ± 0.20 % ID per gram | % ID per gram lung (EMT-6 mammary tumors; 2 hour): 1.27 ± 0.37 % ID per gram | % ID per gram muscle (EMT-6 mammary tumors; 5 min): 1.47 ± 0.20 % ID per gram | % ID per gram muscle (EMT-6 mammary tumors; 30 min): 0.70 ± 0.25 % ID per gram | % ID per gram muscle (EMT-6 mammary tumors; 1 hour): 0.37 ± 0.23 % ID per gram | % ID per gram muscle (EMT-6 mammary tumors; 2 hour): 0.38 ± 0.06 % ID per gram | % ID per gram tumor (EMT-6 mammary tumors; 5 min): 2.91 ± 0.40 % ID per gram | % ID per gram tumor (EMT-6 mammary tumors; 30 min): 1.33 ± 0.13 % ID per gram | % ID per gram tumor (EMT-6 mammary tumors; 1 hour): 0.71 ± 0.12 % ID per gram | % ID per gram tumor (EMT-6 mammary tumors; 2 hour): 0.82 ± 0.09 % ID per gram

Reference: patent publication US7893266B2, “Detection of cancer cells in vitro using sigma-2 receptor ligands as radiotracers” (Washington University, priority 2003, dated 2011)
